Where a name gives a salt, the structure may show the parent alone.
Tests used:
Format in all cases: physicochemical
[1] = Measurement of salt solubility: free base 1-11 treated with acid, suspended in water, HPLC; conditions: for pH: pH in equilibrium with the solid phase, most likely lower than pH of the salt in water; for solubility: salt made in situ with 1.05-1.1 molar equivalence of acid, suspended in water several days, method overestimates the solubility
Procedure: The pH and concentration of the compound in equilibrium with the solid phase was measured by HPLC (UV-Vis detection).

[2] = Aqueous solubility at room temperature, quantitated by HPLC; conditions: for crystallization out of the concentrated aqueous solution: time scale of the experiment (24 hours); for solubility / aqueous solubility at room temperature: water, room temperature, HPLC; for solubility: thermodynamic from solid
Procedure: The free base 2-1 is a yellow powder. […] The crystals appear plate-like with most of the particles below 10 microns. […] The aqueous solubility was measured using HPLC to quantitate the compound in suspension.
The mesylate salt 2-1A is a yellow powder. […] A broad non-reversible endotherm centered around 87° C. is attributed to loss of solvent/moisture. The aqueous solubility was measured using HPLC to quantitate the compound.
The HCl salt 2-1B was also a yellow powder. […] This indicates the presence of both amorphous and crystalline material. […] The aqueous solubility was measured using HPLC to quantitate the compound.
The free base is a yellow powder which contains particles that are birefringent under polarized light indicating the presence of crystalline material. […] The aqueous solubility was measured using HPLC to quantitate the compound in an aqueous suspension.
The HCl salt is also a yellow solid, which contains particles that are birefringent under polarized light indicating the presence of crystalline material. […] The aqueous solubility was measured using HPLC to quantitate the compound in suspension.
The yellow, mesylate salt was examined under polarized light by optical microscopy. […] It is possible that the small amount of crystalline solid went undetected by optical microscopy. The aqueous solubility was measured using HPLC to quantitate the compound in suspension.
This mesylate salt 4-9A, which is a yellow powder, was examined under polarized light by optical microscopy. The crystals appear birefringent under polarized light indicating crystallinity. The crystals appear plate-like with few agglomerates. […] The aqueous solubility was measured using HPLC to quantitate the compound in suspension.

[3] = Solubility of free base 1-11 at room temperature in 0.05M aqueous buffers, water, organic solvents and HPβCD
Procedure: The solubility of 1-11 at room temperature was determined in 0.05M aqueous buffers, water and several organic solvents.

Question: What does the source list for `CS(=O)(=O)N1CCN(Cc2ccc3[nH]c(-c4cc5ccccc5[nH]c4=O)cc3c2)CC1` [Maleate salt of 1-11]?
Answer: pH [1]: 2.5; solubility [1]: 160 µg/mL

Question: With `CN1CCN(Cc2ccc3[nH]c(-c4cc5ccccc5[nH]c4=O)cc3c2)CCC1=O.Cl` [Salt 2-1B, 4-Methyl-5-oxo-1-[2-(2-oxo-1,2-dihydro-quinolin-3-yl)-1H-indol-5-ylmethyl]-[1,4]diazepan-1-ium; methanesulfonate; chloride] as the compound, how does the “crystallization out of the concentrated aqueous solution” value [2] read?
Answer: did not crystallize out

Question: What about the solubility [2] of the same compound?
Answer: > 10200 µg/mL

Question: Which “aqueous solubility at room temperature” value [2] does the source give for `O=C(CO)N1CCN(Cc2ccc3[nH]c(-c4cc5ccccc5[nH]c4=O)cc3c2)CC1` [Salt 3-10A, 4-(2-Hydroxy-ethanoyl) 1-[2-(2-oxo-1,2-dihydro-quinolin-3-yl)-1H-indol-5-ylmethyl]-piperazin-1H-ium; chloride] here?
Answer: 1310 µg/mL

Question: For `O=C(CO)N1CCN(Cc2ccc3[nH]c(-c4cc5ccccc5[nH]c4=O)cc3c2)CC1` [Salt 3-10B, 4-(2-Hydroxy-ethanoyl)-1-[2-(2-oxo-1,2-dihydro-quinolin-3-yl)-1H-indol-5-ylmethyl]-piperazin-1-ium; methanesulfonate], which “aqueous solubility at room temperature” value ([2]; methanesulfonate) is on record?
Answer: 2430 µg/mL

Question: Which solubility ([3]; 0.05 M carbonate buffer, pH 10.09, aqueous buffer, 0.05 M Carbonate, pHfinal 10.09, room temperature) does the source give for `CS(=O)(=O)N1CCN(Cc2ccc3[nH]c(-c4cc5ccccc5[nH]c4=O)cc3c2)CC1` [Salt 1-11, 3-[5-(4-Methanesulfonyl-piperazin-1-ylmethyl)-1H-indol-2-yl]-1H-quinolin-2-one] here?
Answer: 79 µg/mL

Question: What about the solubility ([3]; 0.05 M carbonate buffer, pH 11.15, aqueous buffer, 0.05 M Carbonate, pHfinal 11.15, room temperature) of the same compound?
Answer: 77 µg/mL

Question: And the solubility ([3]; 0.05 M citrate buffer, pH 3.23, aqueous buffer, 0.05 M Citrate, pHfinal 3.23, room temperature)?
Answer: 92 µg/mL

Question: And the solubility ([3]; 0.05 M citrate buffer, pH 4.15, aqueous buffer, 0.05 M Citrate, pHfinal 4.15, room temperature)?
Answer: 73 µg/mL

Question: And the solubility ([3]; 0.05 M citrate buffer, pH 5.07, aqueous buffer, 0.05 M Citrate, pHfinal 5.07, room temperature)?
Answer: 70 µg/mL

Question: And the solubility ([3]; 0.05 M citrate buffer, pH 6.01, aqueous buffer, 0.05 M Citrate, pHfinal 6.01, room temperature)?
Answer: 71 µg/mL

Question: And the solubility ([3]; 0.05 M phosphate buffer, pH 6.96, aqueous buffer, 0.05 M Phosphate, pHfinal 6.96, room temperature)?
Answer: 71 µg/mL

Question: And the solubility ([3]; 0.05 M phosphate buffer, pH 7.93, aqueous buffer, 0.05 M Phosphate, pHfinal 7.93, room temperature)?
Answer: 74 µg/mL

Question: And the solubility ([3]; 0.05 M phosphate buffer, pH 8.86, aqueous buffer, 0.05 M Phosphate, pHfinal 8.86, room temperature)?
Answer: 73 µg/mL

Question: And the solubility ([3]; 25% HPβCD in water, aqueous with cosolvent or surfactant or cyclodextrin, 25% HPβCD, native pH in water (pH = 7.5))?
Answer: 168 µg/mL

Question: And the solubility ([3]; 50% aqueous Can (probably ACN, acetonitrile), aqueous with cosolvent or surfactant or cyclodextrin, 50% Aqueous Can, room temperature)?
Answer: 60 µg/mL

Question: And the solubility ([3]; Water, room temperature)?
Answer: 0.03 µg/mL

Question: What about the solubility ([3]; organic solvent or mixture, Acetonitrile, room temperature) of the same compound?
Answer: 84 µg/mL

Question: What about the solubility ([3]; organic solvent or mixture, Ethanol, room temperature) of the same compound?
Answer: 19 µg/mL

Question: What about the solubility ([3]; organic solvent or mixture, Isopropanol, room temperature) of the same compound?
Answer: 6.5 µg/mL

Question: What about the solubility ([3]; pH 2.45, simulated gastric fluid, 0.01 N HCl, pHfinal 2.45, room temperature) of the same compound?
Answer: 400 µg/mL

Question: And the solubility ([3]; pH 3, aqueous with cosolvent or surfactant or cyclodextrin, 10% HPβCD, pH adjusted to ca. 3.0 with HCl)?
Answer: 1740 µg/mL

Question: And the solubility ([3]; pH 3, aqueous with cosolvent or surfactant or cyclodextrin, 15% HPβCD, pH adjusted to ca. 3.0 with HCl)?
Answer: 2350 µg/mL

Question: And the solubility ([3]; pH 3, aqueous with cosolvent or surfactant or cyclodextrin, 20% HPβCD, pH adjusted to ca. 3.0 with HCl)?
Answer: 3570 µg/mL

Question: And the solubility ([3]; pH 3, aqueous with cosolvent or surfactant or cyclodextrin, 25% HPβCD, pH adjusted to ca. 3.0 with HCl)?
Answer: 4560 µg/mL

Question: For `CS(=O)(=O)N1CCN(Cc2ccc3[nH]c(-c4cc5ccccc5[nH]c4=O)cc3c2)CC1` [Mesylate salt of 1-11], which pH [1] is on record?
Answer: 2.3

Question: What about the solubility [1] of the same compound?
Answer: 580 µg/mL

Question: What does the source list for `CS(=O)(=O)N1CCN(Cc2ccc3[nH]c(-c4cc5ccccc5[nH]c4=O)cc3c2)CC1` [Sulfate salt of 1-11]?
Answer: pH [1]: 1.5; solubility [1]: 130 µg/mL

Question: Which pH [1] does the source give for `CS(=O)(=O)N1CCN(Cc2ccc3[nH]c(-c4cc5ccccc5[nH]c4=O)cc3c2)CC1` [Acetate salt of 1-11] here?
Answer: 3.3

Question: What about the solubility [1] of the same compound?
Answer: 91 µg/mL

Question: Which pH [1] does the source give for `CS(=O)(=O)N1CCN(Cc2ccc3[nH]c(-c4cc5ccccc5[nH]c4=O)cc3c2)CC1` [HCl salt of 1-11] here?
Answer: 2.3

Question: What about the solubility [1] of the same compound?
Answer: 430 µg/mL

Question: With `CS(=O)(=O)N1CCN(Cc2ccc3[nH]c(-c4cc5ccccc5[nH]c4=O)cc3c2)CC1` [Besylate salt of 1-11] as the compound, how does the pH [1] read?
Answer: 2.4

Question: What about the solubility [1] of the same compound?
Answer: 3.8 µg/mL

Question: For `CS(=O)(=O)N1CCN(Cc2ccc3[nH]c(-c4cc5ccccc5[nH]c4=O)cc3c2)CC1` [HBr salt of 1-11], which pH [1] is on record?
Answer: 2.9

Question: And the solubility [1]?
Answer: 200 µg/mL

Question: Which “crystallization out of the concentrated aqueous solution” value [2] does the source give for `CN1CCN(Cc2ccc3[nH]c(-c4cc5ccccc5[nH]c4=O)cc3c2)CCC1=O` [Salt 2-1A, 4-Methyl-5-oxo-1-[2-(2-oxo-1.2-dihydro-quinolin-3-yl)-1H-indol-5-ylmethyl]-[1,4]diazepan-1-ium; methanesulfonate; methanesulfonate] here?
Answer: no crystallization was observed

Question: And the “aqueous solubility at room temperature” value [2]?
Answer: greater than 9.89 mg/mL

Question: With `CN1CCN(Cc2ccc3[nH]c(-c4cc5ccccc5[nH]c4=O)cc3c2)CCC1=O` [Salt 2-1, 3-[5-(4-Methyl-5-oxo-[1,4]diazepan-1-ylmethyl)-1H-indol-2-yl]-1H-quinolin-2-one] as the compound, how does the “aqueous solubility at room temperature” value [2] read?
Answer: 28 µg/mL

Question: Which solubility [2] does the source give for `COCCN(C)CCOc1ccc2[nH]c(-c3cc4ccccc4[nH]c3=O)cc2c1.CS(=O)(=O)O` [Salt 4-9A, 2-methoxy-N-methyl-N-(2-{[2-(2-oxo-1,2-dihydroquinolin-3-yl)-1H-indol-5-yl]oxy}ethyl)ethanaminium methanesulfonate] here?
Answer: 1500 µg/mL

Reference: patent publication US6656942B2, “Orally active salts with tyrosine kinase activity” (Merck & Co., Inc., priority 2000, dated 2003)
